Assay results as given in PubChem BioAssay (NCI).
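These data come from cells grown in 96-well plates and exposed to compound for 48 hours at five concentrations. GI50 marks 50% less growth. TGI is the concentration that stops growth completely.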

Assays:
Experiment in all cases: NCI anticancer screen, dose series, 48 h
[1] = test system: HT29 colon
[2] = test system: COLO 205 colon
[3] = test system: K-562 leukemia
[4] = test system: OVCAR-5 ovarian
[5] = test system: OVCAR-3 ovarian
[6] = test system: HOP-92 NSCLC
[7] = test system: HS 578T breast
[8] = test system: U251 CNS
[9] = test system: OVCAR-4 ovarian
[10] = test system: ACHN renal
[11] = test system: EKVX NSCLC
[12] = test system: SK-MEL-28 melanoma
[13] = test system: PC-3 prostate
[14] = test system: TK-10 renal
[15] = test system: DU-145 prostate
[16] = test system: A549 NSCLC
[17] = test system: SR leukemia
[18] = test system: MALME-3M melanoma
[19] = test system: MDA-MB-435
[20] = test system: CCRF-CEM leukemia
[21] = test system: NCI-H522 lung
[22] = test system: SK-MEL-2 melanoma
[23] = test system: SNB-19 CNS
[24] = test system: HL-60(TB) leukemia
[25] = test system: SF-268 CNS
[26] = test system: SF-295 CNS
[27] = test system: SK-OV-3 ovarian
[28] = test system: UACC-257 melanoma
[29] = test system: KM12 colon
[30] = test system: CAKI-1 renal
[31] = test system: SF-539 CNS
[32] = test system: NCI/ADR-RES ovarian
[33] = test system: SK-MEL-5 melanoma
[34] = test system: 786-0 renal
[35] = test system: NCI-H226 lung
[36] = test system: HCC-2998 colon
[37] = test system: IGROV1 ovarian
[38] = test system: UACC-62 melanoma
[39] = test system: NCI-H460 lung
[40] = test system: MCF7 breast
[41] = test system: T-47D breast
[42] = test system: RXF 393 renal
[43] = test system: HCT-116 colon
[44] = test system: OVCAR-8 ovarian
[45] = test system: SW-620 colon
[46] = test system: HOP-62 NSCLC
[47] = test system: SNB-75 CNS
[48] = test system: SN12C renal
[49] = test system: MDA-MB-231 breast
[50] = test system: HCT-15 colon
[51] = test system: LOX IMVI melanoma
[52] = test system: MOLT-4 leukemia
[53] = test system: UO-31 renal
[54] = test system: A498 renal
[55] = test system: NCI-H23 lung
[56] = test system: M14 melanoma
[57] = test system: RPMI-8226 leukemia

N#C/C(=C/c1cccs1)c1cccs1
GI50 [1]: > 100 µM
TGI [1]: > 100 µM
GI50 [2]: > 100 µM
TGI [2]: > 100 µM
GI50 [3]: > 100 µM
TGI [3]: > 100 µM
GI50 [4]: > 100 µM
TGI [4]: > 100 µM
GI50 [5]: > 100 µM
TGI [5]: > 100 µM
GI50 [6]: 27.8 µM
TGI [6]: > 100 µM
GI50 [7]: 99.3 µM
TGI [7]: > 100 µM
GI50 [8]: > 100 µM
TGI [8]: > 100 µM
GI50 [9]: > 100 µM
TGI [9]: > 100 µM
GI50 [10]: > 100 µM
TGI [10]: > 100 µM
GI50 [11]: > 100 µM
TGI [11]: > 100 µM
GI50 [12]: > 100 µM
TGI [12]: > 100 µM
GI50 [13]: > 100 µM
TGI [13]: > 100 µM
GI50 [14]: > 100 µM
TGI [14]: > 100 µM
GI50 [15]: > 100 µM
TGI [15]: > 100 µM
GI50 [16]: > 100 µM
TGI [16]: > 100 µM
GI50 [17]: > 100 µM
TGI [17]: > 100 µM
GI50 [18]: > 100 µM
TGI [18]: > 100 µM
GI50 [19]: > 100 µM
TGI [19]: > 100 µM
GI50 [20]: > 100 µM
TGI [20]: > 100 µM
GI50 [21]: > 100 µM
TGI [21]: > 100 µM
GI50 [22]: > 100 µM
TGI [22]: > 100 µM
GI50 [23]: > 100 µM
TGI [23]: > 100 µM
GI50 [24]: > 100 µM
TGI [24]: > 100 µM
GI50 [25]: > 100 µM
TGI [25]: > 100 µM
GI50 [26]: > 100 µM
TGI [26]: > 100 µM
GI50 [27]: > 100 µM
TGI [27]: > 100 µM
GI50 [28]: > 100 µM
TGI [28]: > 100 µM
GI50 [29]: > 100 µM
TGI [29]: > 100 µM
GI50 [30]: > 100 µM
TGI [30]: > 100 µM
GI50 [31]: > 100 µM
TGI [31]: > 100 µM
GI50 [32]: > 100 µM
TGI [32]: > 100 µM
GI50 [33]: > 100 µM
TGI [33]: > 100 µM
GI50 [34]: > 100 µM
TGI [34]: > 100 µM
GI50 [35]: > 100 µM
TGI [35]: > 100 µM
GI50 [36]: > 100 µM
TGI [36]: > 100 µM
GI50 [37]: > 100 µM
TGI [37]: > 100 µM
GI50 [38]: > 100 µM
TGI [38]: > 100 µM
GI50 [39]: > 100 µM
TGI [39]: > 100 µM
GI50 [40]: > 100 µM
TGI [40]: > 100 µM
GI50 [41]: 51.5 µM
TGI [41]: > 100 µM
GI50 [42]: 38 µM
TGI [42]: > 100 µM
GI50 [43]: > 100 µM
TGI [43]: > 100 µM
GI50 [44]: > 100 µM
TGI [44]: > 100 µM
GI50 [45]: > 100 µM
TGI [45]: > 100 µM
GI50 [46]: > 100 µM
TGI [46]: > 100 µM
GI50 [47]: > 100 µM
TGI [47]: > 100 µM
GI50 [48]: > 100 µM
TGI [48]: > 100 µM
GI50 [49]: > 100 µM
TGI [49]: > 100 µM
GI50 [50]: > 100 µM
TGI [50]: > 100 µM
GI50 [51]: > 100 µM
TGI [51]: > 100 µM
GI50 [52]: > 100 µM
TGI [52]: > 100 µM
GI50 [53]: > 100 µM
TGI [53]: > 100 µM
GI50 [54]: > 100 µM
TGI [54]: > 100 µM
GI50 [55]: > 100 µM
TGI [55]: > 100 µM

NC(N)=N/N=C/c1c(-c2ccc(Cl)c(Cl)c2Cl)nc2sccn12
TGI [2]: 2.73 µM
TGI [10]: > 100 µM
TGI [12]: 3.12 µM
TGI [13]: > 100 µM
TGI [14]: 2.7 µM
TGI [15]: 3.12 µM
TGI [26]: 3.29 µM
TGI [27]: 3.33 µM
TGI [28]: 3.02 µM
TGI [35]: 3.56 µM
TGI [38]: 2.81 µM
TGI [45]: 3.07 µM
TGI [49]: 2.47 µM
TGI [53]: 2.82 µM
TGI [54]: 2.3 µM
TGI [55]: 2.65 µM

Cc1nnc2sc(-c3ccc(N)cc3)nn12
TGI [1]: > 100 µM
TGI [2]: > 100 µM
TGI [3]: > 100 µM
TGI [4]: > 100 µM
TGI [5]: > 100 µM
TGI [6]: > 100 µM
TGI [7]: > 100 µM
TGI [9]: > 100 µM
TGI [10]: > 100 µM
TGI [11]: > 100 µM
TGI [12]: > 100 µM
TGI [13]: > 100 µM
TGI [14]: > 100 µM
TGI [15]: > 100 µM
TGI [16]: > 100 µM
TGI [17]: > 100 µM
TGI [18]: > 100 µM
TGI [19]: > 100 µM
TGI [20]: > 100 µM
TGI [21]: > 100 µM
TGI [22]: > 100 µM
TGI [23]: > 100 µM
TGI [24]: > 100 µM
TGI [25]: > 100 µM
TGI [26]: > 100 µM
TGI [27]: > 100 µM
TGI [28]: > 100 µM
TGI [29]: > 100 µM
TGI [30]: > 100 µM
TGI [31]: > 100 µM
TGI [32]: > 100 µM
TGI [33]: > 100 µM
TGI [34]: > 100 µM
TGI [35]: > 100 µM
TGI [56]: > 100 µM
TGI [36]: > 100 µM
TGI [37]: > 100 µM
TGI [38]: > 100 µM
TGI [39]: > 100 µM
TGI [40]: > 100 µM
TGI [41]: > 100 µM
TGI [42]: > 100 µM
TGI [43]: > 100 µM
TGI [44]: > 100 µM
TGI [45]: > 100 µM
TGI [46]: > 100 µM
TGI [57]: > 100 µM
TGI [47]: 95.7 µM
TGI [48]: > 100 µM
TGI [49]: > 100 µM
TGI [50]: > 100 µM
TGI [52]: > 100 µM
TGI [53]: > 100 µM
TGI [55]: > 100 µM

CCCCCCCCCCCCCCCCCCNc1ccn(C2OC(COP(=O)(O)OCCCCCCCCCCCCCCCC)C(O)C2O)c(=O)n1 (centres undefined)
TGI [1]: > 100 µM
TGI [2]: > 100 µM
TGI [3]: > 100 µM
TGI [4]: > 100 µM
TGI [5]: > 100 µM
TGI [6]: > 100 µM
TGI [7]: > 100 µM
TGI [8]: > 100 µM
TGI [9]: > 100 µM
TGI [10]: > 100 µM
TGI [11]: > 100 µM
TGI [12]: > 100 µM
TGI [13]: > 100 µM
TGI [14]: > 100 µM
TGI [15]: > 100 µM
TGI [16]: > 100 µM
TGI [17]: > 100 µM
TGI [19]: > 100 µM
TGI [20]: > 100 µM
TGI [21]: > 100 µM
TGI [22]: > 100 µM
TGI [23]: > 100 µM
TGI [24]: > 100 µM
TGI [25]: > 100 µM
TGI [26]: > 100 µM
TGI [27]: > 100 µM
TGI [28]: > 100 µM
TGI [29]: > 100 µM
TGI [30]: > 100 µM
TGI [31]: > 100 µM
TGI [32]: > 100 µM
TGI [34]: > 100 µM
TGI [35]: > 100 µM
TGI [56]: > 100 µM
TGI [36]: > 100 µM
TGI [37]: > 100 µM
TGI [38]: > 100 µM
TGI [40]: > 100 µM
TGI [41]: > 100 µM
TGI [42]: > 100 µM
TGI [43]: > 100 µM
TGI [44]: > 100 µM
TGI [45]: > 100 µM
TGI [46]: > 100 µM
TGI [57]: > 100 µM
TGI [47]: > 100 µM
TGI [48]: > 100 µM
TGI [49]: > 100 µM
TGI [50]: > 100 µM
TGI [51]: > 100 µM
TGI [52]: > 100 µM
TGI [53]: > 100 µM
TGI [54]: > 100 µM
TGI [55]: > 100 µM
